From patent US12150447B2, “Plant growth regulator” (University of Washington, priority 2017, dated 2024)

How the values were obtained:
[1] = target: T1, mutant auxin receptor (TIR1 F79G) (Arabidopsis thaliana, UniProt Q570C0, F79G); experiment: Evaluation of binding to auxin receptor (yeast two-hybrid assay), mutant TIR1 F79G; conditions: for mut TIR: minimum concentration of the test compound in which the well turns blue: yeast EGY48, LacZ reporter, X-gal, 30° C. for 3 days, TIR1 F79G with AUX/IAA protein
T1 construct: expressed in transfected cells; host or cells: Saccharomyces cerevisiae strain EGY48
T1 sequence (Q570C0 whole entry F79G, one chain of several): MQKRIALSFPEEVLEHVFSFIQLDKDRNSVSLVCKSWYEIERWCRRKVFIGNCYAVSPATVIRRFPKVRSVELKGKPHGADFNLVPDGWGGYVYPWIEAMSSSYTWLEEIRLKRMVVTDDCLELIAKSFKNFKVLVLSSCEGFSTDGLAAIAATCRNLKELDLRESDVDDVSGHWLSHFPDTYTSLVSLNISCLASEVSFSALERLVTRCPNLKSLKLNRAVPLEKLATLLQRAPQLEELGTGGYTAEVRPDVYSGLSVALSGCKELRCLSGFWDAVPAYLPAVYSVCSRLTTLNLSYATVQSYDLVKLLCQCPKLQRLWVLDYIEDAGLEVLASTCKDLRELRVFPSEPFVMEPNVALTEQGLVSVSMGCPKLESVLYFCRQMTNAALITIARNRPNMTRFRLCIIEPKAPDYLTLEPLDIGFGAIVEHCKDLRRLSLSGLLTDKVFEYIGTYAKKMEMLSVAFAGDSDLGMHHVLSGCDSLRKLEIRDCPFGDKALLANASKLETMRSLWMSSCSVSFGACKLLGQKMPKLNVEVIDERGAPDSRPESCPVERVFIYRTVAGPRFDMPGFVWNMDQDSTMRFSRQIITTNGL
From the text: (§1) Test Example 1: Evaluation of Binding to Auxin Receptor (Yeast Two-Hybrid Assay
(§2) Specifically, the inventors set up the assay in the following manner.
Yeast strain EGY48 was transformed into a plasmid (pSH18-34) containing a LacZ expression cassette (LexA-operon: LacZ reporter) that is transcriptionally regulated by the LexA-operon, a plasmid derived from pGLex313 containing an expression cassette of LexA-DNA-binding domain fusion protein A (the wild-type auxin receptor: SEQ ID NO. 1, or mutant auxin receptor (TIR1 F79G) where the amino acid residue 79 (phenylalanine) in the wild-type is mutated to a glycine: SEQ ID NO. 2), and a plasmid derived from pJG4-5 containing an expression cassette of B42 transcription activator fusion protein B (AUX/IAA protein: SEQ ID NO: 3). The transformant was cultured at 30° C. on an agar plate made of yeast growth medium (minimal SD base and -His/-Trp/-Ura dropout supplement). The colonies were picked up and incubated overnight in liquid SD/-His/-Trp/-Ura medium at 30° C. Afterwards, the medium was replaced with a liquid medium composed of minimal SD/Gal/Raf base, -His/-Trp/-Ura dropout supplement, 50 mM Na-phosphate buffer (pH 7.0), […] X-gal, and various concentrations of test compounds. After incubation at 30° C. for 3 days, the medium containing yeast was transferred to a white 96-well plate (flat bottom) and observed. The lower the concentration of the test compound when blue color appears, the higher the binding between the test compound and the auxin receptor (wild type or mutant) is. Conversely, higher the concentration of test compound when the blue color appears for the first time, the lower the binding between the test compound and the auxin receptor (wild type or mutant).
(§3) In Table 1, the concentration of “wt TIR” indicates the minimum concentration of the test compound in which the well turns blue when the wild type auxin receptor is used, whereas the concentration of “mut” indicates the minimum concentration of the test compound in which the well turns blue when the mutant auxin receptor (TIR1 F79G) is used.

[2] = target: T2, wild-type auxin receptor (TIR1) (Arabidopsis thaliana, UniProt Q570C0); experiment: Evaluation of binding to auxin receptor (yeast two-hybrid assay), wild-type receptor; conditions: yeast EGY48, LacZ reporter, X-gal, 30° C. for 3 days; wild type auxin receptor with AUX/IAA protein
T2 construct: expressed in transfected cells; host or cells: Saccharomyces cerevisiae strain EGY48
T2 sequence (Q570C0 1-594): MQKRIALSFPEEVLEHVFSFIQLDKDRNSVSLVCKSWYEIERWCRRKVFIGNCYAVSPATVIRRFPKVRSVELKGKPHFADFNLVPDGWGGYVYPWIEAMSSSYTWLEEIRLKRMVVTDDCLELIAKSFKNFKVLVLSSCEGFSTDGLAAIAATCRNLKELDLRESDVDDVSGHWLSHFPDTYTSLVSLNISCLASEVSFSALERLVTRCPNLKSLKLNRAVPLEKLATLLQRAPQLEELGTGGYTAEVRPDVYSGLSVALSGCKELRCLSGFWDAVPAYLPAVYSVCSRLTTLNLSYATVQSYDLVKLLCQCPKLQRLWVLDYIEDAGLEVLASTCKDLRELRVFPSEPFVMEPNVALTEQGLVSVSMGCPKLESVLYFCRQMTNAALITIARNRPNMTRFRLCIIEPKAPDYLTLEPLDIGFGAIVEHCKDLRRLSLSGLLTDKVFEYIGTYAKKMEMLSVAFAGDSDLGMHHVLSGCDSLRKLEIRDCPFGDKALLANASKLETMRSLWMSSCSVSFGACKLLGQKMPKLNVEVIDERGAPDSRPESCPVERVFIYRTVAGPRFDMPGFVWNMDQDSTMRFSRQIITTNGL
T2 sequence (Q38822 1-93 partner limits assumed): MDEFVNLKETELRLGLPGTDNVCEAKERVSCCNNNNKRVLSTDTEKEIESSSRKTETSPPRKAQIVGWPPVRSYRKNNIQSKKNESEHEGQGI
Procedure: as §1, §2
The transformant was cultured at 30° C. on an agar plate made of yeast growth medium (minimal SD base and -His/-Trp/-Ura dropout supplement). The colonies were picked up and incubated overnight in liquid SD/-His/-Trp/-Ura medium at 30° C. Afterwards, the medium was replaced with a liquid medium composed of minimal SD/Gal/Raf base, -His/-Trp/-Ura dropout supplement, 50 mM Na-phosphate buffer (pH 7.0), […] X-gal, and various concentrations of test compounds. After incubation at 30° C. for 3 days, the medium containing yeast was transferred to a white 96-well plate (flat bottom) and observed.
as §3

| Compound | mut TIR: minimum concentration of the test compound in which the well turns blue [1] [µM] | wt TIR: minimum concentration of the test compound in which the well turns blue [2] [µM] | binding affinity of the mutant auxin receptor (TIR1 F79G) relative to that of the wild type auxin receptor ([1]; ratio mutant / wild type, from Table 1) |
| --- | --- | --- | --- |
| O=C(O)Cc1c[nH]c2ccc(-c3cc4ccccc4s3)cc12 [Compound 14, 2-(5-(Benzo[b]thiophen-2-yl)-1H-indol-3-yl)acetic acid] | 0.01 | >1 |  |
| COc1ccccc1-c1ccc2[nH]cc(CC(=O)O)c2c1 [Example 27A, 5-(2-methoxyphenyl)-indole-3-acetic acid] | 10 | 100 |  |
| COc1cccc(-c2ccc3[nH]cc(CC(=O)O)c3c2)c1 [Example 27B, 5-(3-methoxyphenyl)-indole-3-acetic acid] | 1 | 100 |  |
| O=C(O)Cc1c[nH]c2ccc(-c3ccc4ccccc4c3)cc12 [Example 27D, 5-(2-naphthyl)-indole-3-acetic acid] | 0.1 | 10 |  |
| O=C(O)Cc1c[nH]c2ccc(-c3ccccc3)cc12 [Example 42A, 5-(2-Phenyl)-indole-3-acetic acid] | 0.01 | 1 |  |
| O=C(O)Cc1c[nH]c2ccccc12 [Indole-3-acetic acid, indole-3-acetic acid, reference compound] | >100 | 0.1 | less than 1/1000 |
| Cc1ccccc1-c1ccc2[nH]cc(CC(=O)O)c2c1 [MK-189, 2-(5-(o-tolyl)-1H-indol-3-yl)acetic acid] | 0.1 | 10 |  |
| Cc1cccc(-c2ccc3[nH]cc(CC(=O)O)c3c2)c1 [MK-190, 2-(5-(m-tolyl)-1H-indol-3-yl)acetic acid] | 0.1 | 10 |  |
| CC(C)(C)c1ccc(-c2ccc3[nH]cc(CC(=O)O)c3c2)cc1 [MK-198, 2-(5-(4-(tert-butyl)phenyl)-1H-indol-3-yl) acetic acid] | 10 | 100 |  |
| O=C(O)Cc1c[nH]c2ccc(-c3ccc4c(c3)OCO4)cc12 [MK-209, 2-(5-(benzo[d][1,3]dioxol-5-yl)-1H-indol-3-yl) acetic acid] | 0.1 | 10 |  |
| CCOc1cccc(-c2ccc3[nH]cc(CC(=O)O)c3c2)c1 [MK-211, 2-(5-(3-ethoxyphenyl)-1H-indol-3-yl)acetic acid] | 10 | 100 |  |
| Cc1cc(-c2ccc3[nH]cc(CC(=O)O)c3c2)ccc1F [MK-213, 2-(5-(4-fluoro-3-methylphenyl)-1H-indol-3-yl)acetic acid] | 0.1 | 10 |  |
| COc1ccc(-c2ccc3[nH]cc(CC(=O)O)c3c2)cc1C [MK-214, 2-(5-(4-methoxy-3-methylphenyl)-1H-indol-3-yl)acetic acid] | 10 | 100 |  |
| Cc1ccc(C)c(-c2ccc3[nH]cc(CC(=O)O)c3c2)c1 [MK-221, 2-(5-(2,5-dimethylphenyl)-1H-indol-3-yl)acetic acid] | 10 | >100 |  |
| Cc1ccc(-c2ccc3[nH]cc(CC(=O)O)c3c2)cc1C [MK-230, 2-(5-(3,4-dimethylphenyl)-1H-indol-3-yl)acetic acid] | 0.1 | 10 |  |
